Counter-ions that a name gives are not always drawn. Like-named read-outs stand apart in the source and are kept apart here.
Assay: standard maximal electroshock test (MES), anticonvulsant activity
Type: in vivo
Settings: tested as HCl salt
Method: The anticonvulsant activity of certain compounds of the present invention were determined by a standard maximal electroshock test (MES); that described by L.A.Woodbury and V.D.Davenport, Arch. Int.Pharmacodyn, 1952 92 97.

[1] = ip, I.P administration, read-out: ED50.I.P
[2] = po, P.O administration, read-out: ED50.P.O

CNc1nccc2c1nnn2Cc1ccccc1F [Example 1, 1-(2-fluorobenzyl)-4-(methylamino)-1H-1,2,3-triazolo[4,5-c]pyridine]
ED50 [1]: 4.5 mg/kg
ED50 [2]: 4.4 mg/kg

Fc1ccccc1Cn1nnc2c(NC3CC3)nccc21 [Example 2, 4-(cyclopropylamino)-1-(2-fluorobenzyl)-1H-1,2,3-triazolo [4,5-c] pyridine]
ED50 [1]: 4.8 mg/kg
ED50 [2]: 6.3 mg/kg

CCNc1nccc2c1nnn2Cc1ccccc1F [Example 3, 4-(ethylamino)-1-(2-fluorobenzyl)-1H-1,2,3-triazolo[4,5-c] pyridine]
ED50 [1]: 8.3 mg/kg
ED50 [2]: 10.3 mg/kg

CN(C)c1nccc2c1nnn2Cc1ccccc1F [Example 4, 4-(dimethylamino)-1-(2-fluorobenzyl)-1H-1,2,3-triazolo [4,5-c]pyridine]
ED50 [1]: 6.3 mg/kg
ED50 [2]: 6.6 mg/kg

CNc1nccc2c1nnn2Cc1c(F)cccc1F [Example 5, 1-(2,6-difluorobenzyl)-4-(methylamino)-1H-1,2,3-triazolo [4,5-c] pyridine]
ED50 [1]: 7.8 mg/kg
ED50 [2]: 5.3 mg/kg

Nc1nccc2c1nnn2Cc1c(F)cccc1F [Example 6, 4-amino-1-(2,6,-difluorobenzyl)-1H-1,2,3-triazolo [4,5-c]pyridine hydrochloride]
ED50 [1]: 6.3 mg/kg
ED50 [2]: 3.7 mg/kg

CNc1nccc2c1nnn2Cc1cc(F)ccc1F [Example 7, 1-(2,5-difluorobenzyl)-4-(methylamino)-1H-1,2,3-triazolo [4,5-c]pyridine]
ED50 [1]: 5 mg/kg
ED50 [2]: 4.3 mg/kg

CNc1nccc2c1nnn2Cc1ccccc1 [Example 8, 1-benzyl-4-(methylamino)-1H-1,2,3-triazolo[4.5-c]pyridine]
ED50 [1]: 7.8 mg/kg
ED50 [2]: 8.9 mg/kg

Fc1cccc(F)c1Cn1nnc2c(NC3CC3)nccc21 [Example 10, 4-(cyclopropylamino)-1-(2,6-difluorobenzyl)-1H-1,2,3-triazolo[4,5-c]pyridine]
ED50 [1]: 4.1 mg/kg
ED50 [2]: 8.1 mg/kg

— patent EP0399653B1, “Anticonvulsant triazolo[4,5-c]pyridine derivatives” (THE WELLCOME FOUNDATION LIMITED, priority 1989, dated 1990)
